Data set [1] relates to low passage, clinical strains of HIV-1. Kind of data set: Anti-HIV activity in fresh human peripheral blood mononuclear cells. The conditions noted are these: fresh human PBMC; varies from strain to strain. The format is cell-based. The protocol: In another experiment, the anti-HIV activity of Oligos 12, 32, and 41 was evaluated against a variety of low passage, clinical strains of HIV-1 in fresh human peripheral blood mononuclear cells. These strains include viruses obtained from pediatric patients attending the Children's Hospital University of Alabama at Birmingham as well as viruses representative of the various HIV-1 clades found throughout the world, shown below in TABLE 4.
Fresh human peripheral blood lymphocytes (PBL) were isolated from voluntary Red Cross donors, seronegative for HIV and HBV. Leukophoresed blood was diluted 1:1 with Dulbecco's phosphate buffered saline (PBS), layered over 14 ml of Ficoll-Hypaque density gradient in a 50 ml centrifuge tube. Tubes were then centrifuged for 30 minutes at 600×g. Banded PBLs were gently aspirated from the resulting interface and subsequently washed 2× with PBS by low speed centrifugation. After final wash, cells were enumerated by trypan blue exclusion and re-suspended at 1×10^7/ml in RPMI 1640 with 15% Fetal Bovine Serum (FBS), 2 mM L-glutamine, […] PHA-P and allowed to incubate for 48–72 hours at 37° C. After incubation, PBLs were centrifuged and reset in RPMI 1640 with 15% FBS, 2 mM L-glutamine, 100 U/ml penicillin, 100 μg/ml streptomycin, 10 μg/ml gentamycin, and 20 U/ml recombinant human IL-2. PBLs were maintained in this medium at a concentration of 1–2×10^6/ml with bi-weekly medium changes, until use in assay protocol. […]
In the standard PBL assay (MOI: 0.2), the assay was ended on day 7 following collection of cell free supernatant samples for reverse transcriptase activity assay. In the low MOI PBL assay (MOI: 0.02), supernatant samples were collected on day 6, day 11, and day 14 post-infection and analyzed for RT activity. […] Opti-Fluor O was added to each sample and incorporated radioactivity was quantified utilizing a liquid scintillation counter, (Wallac 1450 Microbetaplus, Gaithersburg, Md.).

Another data set relates to HIV-1 (IIIB, RF and SK1). Briefly: XTT-based anti-HIV assay, laboratory strains of HIV-1. In kind it is cell-based. The text has this:
The initial experiment performed involved evaluation of Oligos 12, 32, and 41 against three laboratory strains of HIV-1 (IIIB, RF and SK1) and one strain of HIV-2 (ROD) in parallel with the positive control compound ddC in the XTT-based anti-HIV assay. All these oligonucleotides are active against both HIV-1 and HIV-2.
CEM-SS sells (AIDS Research and Reference Reagent Program, NIH) or other established human T cell lines used in these experiments were passaged in T-150 flasks for use in the assay. On the day preceding the assay, the cells were split 1:2 to assure they would be in an exponential growth phase at time of infection. On the day of assay the cells were washed twice with tissue culture medium and resuspended in fresh tissue cultures medium. Total cell and viability counting was performed using a hemacytometer and trypan blue dye exclusion. Cell viability was greater than 95% for the cells to be utilized in the assay. The cells were pelleted and resuspended at 2.5×10^4 cells per ml in tissue culture medium. […]
A pretitered aliquot of virus was removed from the freezer −80° C.) and allowed to thaw slowly to room temperature in a biological safety cabinet. The virus was resuspended and diluted into tissue culture medium such that the amount of virus added to each well in a volume of 50 μl will be the amount determined to give complete cell killing at 6 days post-infection. […]
After 6 days of incubation at 37° C. in a 5% CO2 incubator, the test plates were analyzed by staining with the tetrazolium dye XTT. XTT-tetrazolium is metabolized by the mitochondrial enzymes of metabolically active cells to a soluble formazan product, allowing the rapid quantitative analysis of the inhibition of HIV-induced cell killing by anti-HIV test substances. […]
XTT solution was prepared daily as a stock of 1 mg/ml in PBS. […] Adhesive plate sealers were used in place of the lids, the sealed plate was inverted several times to mix the soluble formazan product and the plate was read spectrophotometrically at A450 nm with a Molecular Devices Vmax plate reader.

The results in this text go back to patent publication US7173014B2, “HIV-specific synthetic oligonucleotides and methods of their use” (priority 1997, dated 2007).

In the case of “Oligo 41: oligonucleotide having SEQ ID NO:6; sequence not printed, not listed in TABLE 2 (UCGCACCCATCTCTCTCCUUC; chemistry not given here)”, the “activity against low passage clinical T-tropic strains of HIV-1” value in data set [1] is listed as “active”. Also, the “activity against HIV-1” value in the data set on HIV-1 (IIIB, RF and SK1) is on record as “active”.
